Data taken from patent US20100298141A1, “SUBSTITUTED PYRIDINE N-OXIDE HERBICIDES” (E. I. DU PONT DE NEMOURS AND COMPANY, priority 2007, published 2010).

Columns and labels:
wild oat = experiment: Test D preemergence test; type: in vivo, Avena fatua; conditions: scale 0 to 100
Excerpt: (§1) Seeds of plant species selected from annual bluegrass (Poa annua), blackgrass (Alopecurus myosuroides), downy bromegrass (Bromus tectorum), field violet (Viola arvensis), green foxtail (Setaria viridis), Italian ryegrass (Lolium multiflorum), littleseed canarygrass (Phalaris minor), spring wheat (Triticum aestivum), wild oat (Avena fatua), […]), winter barley (Hordeum vulgare), and winter wheat (Triticum aestivum) were planted and treated preemergence with test chemicals formulated in a non-phytotoxic solvent mixture which included a surfactant. […] A dash (-) response means no test result.

winter wheat = experiment: Test D preemergence test; type: in vivo, Triticum aestivum; conditions: scale 0 to 100
Excerpt: as §1

spring wheat = experiment: Test D preemergence test; type: in vivo, Triticum aestivum; conditions: scale 0 to 100
Excerpt: as §1

field violet = experiment: Test D preemergence test; type: in vivo, Viola arvensis; conditions: scale 0 to 100
Excerpt: as §1

woolly cupgrass = experiment: Test G preemergence test; type: in vivo, Eriochloa villosa; conditions: scale 0 to 100
umbrella sedge = experiment: Test B flooded paddy test; type: in vivo, Cyperus difformis; conditions: Flood, 250 g ai/ha, 13 to 15 days; scale 0 to 100, 0 no effect, 100 complete control
Excerpt: (§2) At time of treatment, test pots were flooded to 3 cm above the soil surface, treated by application of test compounds directly to the paddy water, and then maintained at that water depth for the duration of the test. Treated plants and controls were maintained in a greenhouse for 13 to 15 days, after which time all species were compared to controls and visually evaluated. […] A dash (-) response means no test result.

eastern black nightshade = experiment: Test G preemergence test; type: in vivo, Solanum ptycanthum; conditions: scale 0 to 100
goosegrass = experiment: Test G preemergence test; type: in vivo, Eleusine indica; conditions: scale 0 to 100
sorghum = experiment: Test G preemergence test; type: in vivo, Sorghum vulgare; conditions: scale 0 to 100
Italian ryegrass = experiment: Test D preemergence test; type: in vivo, Lolium multiflorum; conditions: scale 0 to 100
Excerpt: as §1

broadleaf signalgrass = experiment: Test G preemergence test; type: in vivo, Brachiaria platyphylla; conditions: scale 0 to 100
giant foxtail = experiment: Test G preemergence test; type: in vivo, Setaria faberii; conditions: scale 0 to 100
tall waterhemp = experiment: Test G preemergence test; type: in vivo, Amaranthus tuberculatos; conditions: scale 0 to 100
barnyardgrass [1] = experiment: Test B flooded paddy test; type: in vivo, Echinochloa crus-galli; conditions: Flood, 250 g ai/ha, 13 to 15 days; scale 0 to 100, 0 no effect, 100 complete control
Excerpt: as §2

yellow foxtail = experiment: Test G preemergence test; type: in vivo, Pennisetum glaucum; conditions: scale 0 to 100
barnyardgrass [2] = experiment: Test G preemergence test; type: in vivo, Echinochloa crus-galli; conditions: scale 0 to 100
large crabgrass = experiment: Test G preemergence test; type: in vivo, Digitaria sanguinalis; conditions: scale 0 to 100
green foxtail = experiment: Test D preemergence test; type: in vivo, Setaria viridis; conditions: scale 0 to 100
Excerpt: as §1

downy bromegrass = experiment: Test D preemergence test; type: in vivo, Bromus tectorum; conditions: scale 0 to 100
Excerpt: as §1

lambsquarters = experiment: Test G preemergence test; type: in vivo, Chenopodium album; conditions: scale 0 to 100
windgrass = experiment: Test D preemergence test; type: in vivo, Apera spica-venti; conditions: scale 0 to 100
Excerpt: as §1

corn = experiment: Test G preemergence test; type: in vivo, Zea mays; conditions: scale 0 to 100
duck salad = experiment: Test B flooded paddy test; type: in vivo, Heteranthera limosa; conditions: Flood, 250 g ai/ha, 13 to 15 days; scale 0 to 100, 0 no effect, 100 complete control
Excerpt: as §2

soybean = experiment: Test G preemergence test; type: in vivo, Glycine max; conditions: scale 0 to 100
fall panicum = experiment: Test G preemergence test; type: in vivo, Panicum dichotomiflorum; conditions: scale 0 to 100

Cn1nc(C(F)(F)F)c(C[S+]([O-])c2cccc[n+]2[O-])c1OC(F)F (stereo not shown) [Compound 3]
Plant response rating, Oat, Wild (wild oat; 31 g ai/ha): 0
Plant response rating, Oat, Wild (wild oat; 62 g ai/ha): 0
Plant response rating, Oat, Wild (wild oat; 125 g ai/ha): 10
Plant response rating, Oat, Wild (wild oat; 250 g ai/ha): 20
Plant response rating, Wheat, Winter (winter wheat; 31 g ai/ha): 0
Plant response rating, Wheat, Winter (winter wheat; 62 g ai/ha): 10
Plant response rating, Wheat, Winter (winter wheat; 125 g ai/ha): 15
Plant response rating, Wheat, Winter (winter wheat; 250 g ai/ha): 40
Plant response rating, Wheat, Spring (spring wheat; 31 g ai/ha): 0
Plant response rating, Wheat, Spring (spring wheat; 62 g ai/ha): 0
Plant response rating, Wheat, Spring (spring wheat; 125 g ai/ha): 15
Plant response rating, Wheat, Spring (spring wheat; 250 g ai/ha): 20
Plant response rating, Field Violet (field violet; 31 g ai/ha): 70
Plant response rating, Field Violet (field violet; 62 g ai/ha): 70
Plant response rating, Field Violet (field violet; 125 g ai/ha): 85
Plant response rating, Field Violet (field violet; 250 g ai/ha): 100
Plant response rating, Cupgrass, Woolly (woolly cupgrass; 31 g ai/ha): 0
Plant response rating, Cupgrass, Woolly (woolly cupgrass; 62 g ai/ha): 40
Plant response rating, Cupgrass, Woolly (woolly cupgrass; 125 g ai/ha): 95
Plant response rating, Cupgrass, Woolly (woolly cupgrass; 250 g ai/ha): 100
Plant response rating, Umbrella Sedge (umbrella sedge): 100
Plant response rating, Nightshade (eastern black nightshade; 31 g ai/ha): 0
Plant response rating, Nightshade (eastern black nightshade; 62 g ai/ha): 60
Plant response rating, Nightshade (eastern black nightshade; 125 g ai/ha): 65
Plant response rating, Nightshade (eastern black nightshade; 250 g ai/ha): 100
Plant response rating, Goosegrass (goosegrass; 31 g ai/ha): 65
Plant response rating, Goosegrass (goosegrass; 62 g ai/ha): 80
Plant response rating, Goosegrass (goosegrass; 125 g ai/ha): 100
Plant response rating, Goosegrass (goosegrass; 250 g ai/ha): 100
Plant response rating, Sorghum (sorghum; 31 g ai/ha): 0
Plant response rating, Sorghum (sorghum; 62 g ai/ha): 10
Plant response rating, Sorghum (sorghum; 125 g ai/ha): 55
Plant response rating, Sorghum (sorghum; 250 g ai/ha): 100
Plant response rating, Ryegrass, Italian (Italian ryegrass; 31 g ai/ha): 0
Plant response rating, Ryegrass, Italian (Italian ryegrass; 62 g ai/ha): 35
Plant response rating, Ryegrass, Italian (Italian ryegrass; 125 g ai/ha): 45
Plant response rating, Ryegrass, Italian (Italian ryegrass; 250 g ai/ha): 95
Plant response rating, Signalgrass (broadleaf signalgrass; 31 g ai/ha): 0
Plant response rating, Signalgrass (broadleaf signalgrass; 62 g ai/ha): 45
Plant response rating, Signalgrass (broadleaf signalgrass; 125 g ai/ha): 60
Plant response rating, Signalgrass (broadleaf signalgrass; 250 g ai/ha): 95
Plant response rating, Foxtail, Giant (giant foxtail; 31 g ai/ha): 0
Plant response rating, Foxtail, Giant (giant foxtail; 62 g ai/ha): 75
Plant response rating, Foxtail, Giant (giant foxtail; 125 g ai/ha): 100
Plant response rating, Foxtail, Giant (giant foxtail; 250 g ai/ha): 100
Plant response rating, Waterhemp (tall waterhemp; 31 g ai/ha): 0
Plant response rating, Waterhemp (tall waterhemp; 62 g ai/ha): 0
Plant response rating, Waterhemp (tall waterhemp; 125 g ai/ha): 100
Plant response rating, Waterhemp (tall waterhemp; 250 g ai/ha): 100
Plant response rating, Barnyardgrass (barnyardgrass [1]): 60
Plant response rating, Foxtail, Yellow (yellow foxtail; 31 g ai/ha): 0
Plant response rating, Foxtail, Yellow (yellow foxtail; 62 g ai/ha): 75
Plant response rating, Foxtail, Yellow (yellow foxtail; 125 g ai/ha): 100
Plant response rating, Foxtail, Yellow (yellow foxtail; 250 g ai/ha): 100
Plant response rating, Barnyardgrass (barnyardgrass [2]; 31 g ai/ha): 0
Plant response rating, Barnyardgrass (barnyardgrass [2]; 62 g ai/ha): 70
Plant response rating, Barnyardgrass (barnyardgrass [2]; 125 g ai/ha): 100
Plant response rating, Barnyardgrass (barnyardgrass [2]; 250 g ai/ha): 100
Plant response rating, Crabgrass, Large (large crabgrass; 31 g ai/ha): 0
Plant response rating, Crabgrass, Large (large crabgrass; 62 g ai/ha): 60
Plant response rating, Crabgrass, Large (large crabgrass; 125 g ai/ha): 100
Plant response rating, Crabgrass, Large (large crabgrass; 250 g ai/ha): 100
Plant response rating, Foxtail, Green (green foxtail; 31 g ai/ha): 0
Plant response rating, Foxtail, Green (green foxtail; 62 g ai/ha): 35
Plant response rating, Foxtail, Green (green foxtail; 125 g ai/ha): 60
Plant response rating, Foxtail, Green (green foxtail; 250 g ai/ha): 100
Plant response rating, Bromegrass, Downy (downy bromegrass; 31 g ai/ha): 0
Plant response rating, Bromegrass, Downy (downy bromegrass; 62 g ai/ha): 45
Plant response rating, Bromegrass, Downy (downy bromegrass; 125 g ai/ha): 55
Plant response rating, Bromegrass, Downy (downy bromegrass; 250 g ai/ha): 55
Plant response rating, Lambsquarters (lambsquarters; 31 g ai/ha): 0
Plant response rating, Lambsquarters (lambsquarters; 62 g ai/ha): 0
Plant response rating, Lambsquarters (lambsquarters; 125 g ai/ha): 100
Plant response rating, Lambsquarters (lambsquarters; 250 g ai/ha): 100
Plant response rating, Windgrass (windgrass; 31 g ai/ha): 0
Plant response rating, Windgrass (windgrass; 62 g ai/ha): 75
Plant response rating, Windgrass (windgrass; 125 g ai/ha): 100
Plant response rating, Windgrass (windgrass; 250 g ai/ha): 100
Plant response rating, Corn (corn; 31 g ai/ha): 0
Plant response rating, Corn (corn; 62 g ai/ha): 0
Plant response rating, Corn (corn; 125 g ai/ha): 10
Plant response rating, Corn (corn; 250 g ai/ha): 60
Plant response rating, Ducksalad (duck salad): 90
Plant response rating, Soybean (soybean; 31 g ai/ha): 0
Plant response rating, Soybean (soybean; 62 g ai/ha): 15
Plant response rating, Soybean (soybean; 125 g ai/ha): 20
Plant response rating, Soybean (soybean; 250 g ai/ha): 35
Plant response rating, Fall Panicum (fall panicum; 31 g ai/ha): 0
Plant response rating, Fall Panicum (fall panicum; 62 g ai/ha): 40
Plant response rating, Fall Panicum (fall panicum; 125 g ai/ha): 90
Plant response rating, Fall Panicum (fall panicum; 250 g ai/ha): 95
